Counter-ions that a name gives are not always drawn. Like-named read-outs stand apart in the source and are kept apart here. *1 amine or outer side, *2 acyl side, *3 side chain or, on linkers, in order; H or OH if unused. Where a SMILES comes first, the peptide text is derived from it. [ ]: non-standard residue; d: D form. The star is where a group is joined. Phe(4-N(CH2CH2Cl)2) = N[C@@H](Cc1ccc(N(CCCl)CCCl)cc1)C(=O)O; X1 = O=C([C@H](Cc1cccc(N(CCCl)CCCl)c1)N[*:1])[*:2]; Boc = CC(C)(C)OC(=O)*
How the values were obtained:
bombesin receptors = target: T1, bombesin receptors (Mus musculus, UniProt P21729); experiment: Binding affinity for bombesin receptors on mouse Swiss 3T3 fibroblasts; details: for ID50: mouse Swiss 3T3 fibroblasts
T1 construct: bombesin receptors was determined on mouse Swiss 3T3 fibroblasts; endogenous in cells; host or cells: mouse Swiss 3T3 fibroblasts
Method: The binding affinity of the compounds of the present invention for bombesin receptors was determined on mouse Swiss 3T3 fibroblasts (I. Zachary and E. Rozengurt (1985) Proc. Natl. Acad. Sci. USA, 82, 7616-7620) (Table 1).

Swiss 3T3 fibroblasts [1] = experiment: Inhibition of BBS-induced [H3]thymidine incorporation (given with BBS or as pre-treatment); format: cell-based, mouse; details: for % inhibition in the presence of 25 nM BBS (A): A = analogues given in combination with BBS; for % inhibition in the presence of 25 nM BBS (B): B = cells pretreated with analogues, washed, left at 37° C. for 24 h, then challenged with BBS; for Antagonism of BBS (in words): given together / contemporaneously with BBS
Method: (§1) The effect on mitogenesis was determined in quiescent and confluent Swiss 3T3 cells maintained in serum free medium (A. N. Corps et al (1985) Biochem J. 231, 781-785). In a first set of experiments, analogues were given alone or in combination with bombesin. In a second set of experiments, cells were pre-treated with the alkylating peptides, washed, left at 37° C. for 24 hours and then challenged with bombesin. In both cases, DNA synthesis was evaluated as [H^3 ]thymidine incorporation (Table 2).

Swiss 3T3 fibroblasts [2] = experiment: as above; format: cell-based, mouse
Swiss 3T3 fibroblasts [3] = experiment: [H3]thymidine incorporation (mitogenesis), analogues given alone; format: cell-based, mouse; details: for [H3]thymidine incorporation, fold increase over basal value: analogue alone; for Effect on thymidine incorporation (in words): given alone
Method: as §1

[4] = system: p115 protein associated with the bombesin receptor complex; experiment: Phosphorylation of the p115 protein associated with the bombesin receptor; format: cell-based
Method: Mitogenic effect of bombesin and its analogues were also evaluated as activation of the proteintyrosin kinase that phosphorylates a 115 KD protein (p115) associated with the bombesin receptor complex (D. Cirillo et al. (1986) Mol. Cell. Biol. 6, 4641-4649) (Table 3).

T1 sequence (P21729 whole entry): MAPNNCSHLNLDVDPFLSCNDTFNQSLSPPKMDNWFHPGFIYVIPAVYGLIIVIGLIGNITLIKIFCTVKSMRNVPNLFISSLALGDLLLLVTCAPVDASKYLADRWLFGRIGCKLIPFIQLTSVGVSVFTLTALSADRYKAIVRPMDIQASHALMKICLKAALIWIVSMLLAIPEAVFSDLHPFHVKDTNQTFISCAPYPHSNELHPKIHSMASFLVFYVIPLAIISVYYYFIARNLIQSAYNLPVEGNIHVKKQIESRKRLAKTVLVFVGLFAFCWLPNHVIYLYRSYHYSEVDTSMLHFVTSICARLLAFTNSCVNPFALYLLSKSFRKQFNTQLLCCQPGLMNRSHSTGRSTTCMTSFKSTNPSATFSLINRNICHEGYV

CC(C)[C@H](NC(=O)[C@H](C)NC(=O)[C@H](Cc1c[nH]c2ccccc12)NC(=O)[C@H](CCC(N)=O)NC(=O)[C@H](Cc1cccc(N(CCCl)CCCl)c1)NC(=O)OC(C)(C)C)C(=O)NCC(=O)O [IX, Boc-mMel-Gln-Trp-Ala-Val-Gly-OH] (Boc-[X1]QWAVG-OH)
IC50 (bombesin receptors): 8200 nM

H-mMel-Gln-Trp-Ala-Val-Gly-His-(Dnp)-Leu-Met-NH2.HCl [XVII]
% inhibition in the presence of 25 nM BBS (A) (Swiss 3T3 fibroblasts [1]; 500 nM): 6 ± 3%
% inhibition in the presence of 25 nM BBS (B) (Swiss 3T3 fibroblasts [1]; 500 nM): 58 ± 13%
% inhibition in the presence of 25 nM BBS (A) (Swiss 3T3 fibroblasts [1]; 5000 nM): 20 ± 7%
% inhibition in the presence of 25 nM BBS (B) (Swiss 3T3 fibroblasts [1]; 5000 nM): 62 ± 1%
Antagonism of BBS (in words) (Swiss 3T3 fibroblasts [1]): potent antagonists
ID50 (bombesin receptors): 148 ± 27 nM
Antagonism of BBS (in words) (Swiss 3T3 fibroblasts [2]): potent antagonists
[H3]thymidine incorporation, fold increase over basal value (Swiss 3T3 fibroblasts [3]; 5 nM): 1
[H3]thymidine incorporation, fold increase over basal value (Swiss 3T3 fibroblasts [3]; 50 nM): 2.9
[H3]thymidine incorporation, fold increase over basal value (Swiss 3T3 fibroblasts [3]; 500 nM): 4.2
[H3]thymidine incorporation, fold increase over basal value (Swiss 3T3 fibroblasts [3]; 5000 nM): 3.9
Effect on thymidine incorporation (in words) (Swiss 3T3 fibroblasts [3]): did not increase incorporation of thymidine
Minimal active dose, p115 phosphorylation [4]: 4 nM

CSCC[C@H](NC(=O)[C@H](CC(C)C)NC(=O)[C@H](Cc1c[nH]cn1)NC(=O)CNC(=O)[C@@H](NC(=O)[C@H](C)NC(=O)[C@H](Cc1c[nH]c2ccccc12)NC(=O)[C@H](CCC(N)=O)NC(=O)[C@H](Cc1ccc(N(CCCl)CCCl)cc1)NC(=O)OC(C)(C)C)C(C)C)C(N)=O [VI, Boc-pMel-Gln-Trp-Ala-Val-Gly-His-Leu-Met-NH2]
IC50 (bombesin receptors): 48 ± 2 nM

CSCC[C@H](NC(=O)[C@H](CC(C)C)NC(=O)[C@H](Cc1c[nH]cn1)NC(=O)CNC(=O)[C@@H](NC(=O)[C@H](C)NC(=O)[C@H](Cc1c[nH]c2ccccc12)NC(=O)[C@H](CCC(N)=O)NC(=O)[C@@H](N)Cc1ccc(N(CCCl)CCCl)cc1)C(C)C)C(N)=O [VII, H-pMel-Gln-Trp-Ala-Val-Gly-His-Leu-Met-NH2.2 HCl]
IC50 (bombesin receptors): 60 ± 20 nM

CC(C)[C@H](NC(=O)[C@H](C)NC(=O)[C@H](Cc1c[nH]c2ccccc12)NC(=O)[C@H](CCC(N)=O)NC(=O)[C@H](Cc1ccc(N(CCCl)CCCl)cc1)NC(=O)OC(C)(C)C)C(=O)NCC(=O)O [III, Boc-pMel-Gln-Trp-Ala-Val-Gly-OH] (Boc-[Phe(4-N(CH2CH2Cl)2)]QWAVG-OH)
IC50 (bombesin receptors): 12000 nM

CC(C)C[C@H](NC(=O)[C@H](CC(C)C)NC(=O)[C@@H](Cc1c[nH]c2ccccc12)NC(=O)[C@H](Cc1ccccc1)NC(=O)[C@@H](Cc1c[nH]c2ccccc12)NC(=O)[C@H](CCC(N)=O)NC(=O)[C@H](CCC(N)=O)NC(=O)[C@@H]1CCCN1C(=O)[C@H](CCCCN)NC(=O)[C@@H]1CCCN1C(=O)[C@H](N)CCCNC(=N)N)C(N)=O [Spantide, reference compound] (H-[dR]PKPQQ[dW]F[dW]LL-NH2)
Minimal active dose, p115 phosphorylation [4]: > 10000 nM

CSCC[C@H](NC(=O)[C@H](CC(C)C)NC(=O)[C@H](Cc1c[nH]cn1)NC(=O)CNC(=O)[C@@H](NC(=O)[C@H](C)NC(=O)[C@H](Cc1c[nH]c2ccccc12)NC(=O)[C@H](CCC(N)=O)NC(=O)[C@@H](N)Cc1cccc(N(CCCl)CCCl)c1)C(C)C)C(N)=O [XIX, H-mMel-Gln-Trp-Ala-Val-Gly-His-Leu-Met-NH2.2HCl]
IC50 (bombesin receptors): 95 ± 8 nM

CSCC[C@H](NC(=O)[C@H](CC(C)C)NC(=O)CNC(=O)[C@@H](NC(=O)[C@H](C)NC(=O)[C@H](Cc1c[nH]c2ccccc12)NC(=O)[C@H](CCC(N)=O)NC(=O)[C@H](Cc1cccc(N(CCCl)CCCl)c1)NC(=O)OC(C)(C)C)C(C)C)C(N)=O [XX, Boc-mMel-Gln-Trp-Ala-Val-Gly-Leu-Met-NH2] (Boc-[X1]QWAVGLM-NH2)
IC50 (bombesin receptors): 60.1 ± 3.3 nM

CSCC[C@H](NC(=O)[C@H](CC(C)C)NC(=O)[C@H](Cc1c[nH]cn1)NC(=O)CNC(=O)[C@@H](NC(=O)[C@H](C)NC(=O)[C@H](Cc1c[nH]c2ccccc12)NC(=O)[C@H](CCC(N)=O)NC(=O)[C@H](Cc1cccc(N(CCCl)CCCl)c1)NC(=O)OC(C)(C)C)C(C)C)C(N)=O [XVIII, Boc-mMel-Gln-Trp-Ala-Val-Gly-His-Leu-Met-NH3.CF3 COOH]
IC50 (bombesin receptors): 40 ± 12 nM

Boc-mMel-Gln-Trp-Ala-Val-Gly-His(Dnp)-Leu-Met-NH2 [XVI]
% inhibition in the presence of 25 nM BBS (A) (Swiss 3T3 fibroblasts [1]; 500 nM): 17 ± 2%
% inhibition in the presence of 25 nM BBS (B) (Swiss 3T3 fibroblasts [1]; 500 nM): 47 ± 10%
% inhibition in the presence of 25 nM BBS (A) (Swiss 3T3 fibroblasts [1]; 5000 nM): 41 ± 1%
% inhibition in the presence of 25 nM BBS (B) (Swiss 3T3 fibroblasts [1]; 5000 nM): 37 ± 7%
Antagonism of BBS (in words) (Swiss 3T3 fibroblasts [1]): potent antagonists
ID50 (bombesin receptors): 390 ± 160 nM
Antagonism of BBS (in words) (Swiss 3T3 fibroblasts [2]): potent antagonists
[H3]thymidine incorporation, fold increase over basal value (Swiss 3T3 fibroblasts [3]; 5 nM): 1.2
[H3]thymidine incorporation, fold increase over basal value (Swiss 3T3 fibroblasts [3]; 50 nM): 1.6
[H3]thymidine incorporation, fold increase over basal value (Swiss 3T3 fibroblasts [3]; 500 nM): 3.1
[H3]thymidine incorporation, fold increase over basal value (Swiss 3T3 fibroblasts [3]; 5000 nM): 3.9
Effect on thymidine incorporation (in words) (Swiss 3T3 fibroblasts [3]): did not increase incorporation of thymidine
Minimal active dose, p115 phosphorylation [4]: 40 nM

CSCC[C@H](NC(=O)[C@H](CC(C)C)NC(=O)[C@H](Cc1cnc[nH]1)NC(=O)CNC(=O)[C@@H](NC(=O)[C@H](C)NC(=O)[C@H](Cc1c[nH]c2ccccc12)NC(=O)[C@H](CCC(N)=O)NC(=O)[C@H](CC(N)=O)NC(=O)CNC(=O)[C@H](CC(C)C)NC(=O)[C@H](CCCN=C(N)N)NC(=O)[C@H](CCC(N)=O)NC(=O)[C@@H]1CCC(=O)N1)C(C)C)C(N)=O [BBS, Glp-Gln-Arg-Leu-Gly-Asn-Gln-Trp-Ala-Val-Gly-His-Leu-Met-NH2, reference compound]
[H3]thymidine incorporation, fold increase over basal value (Swiss 3T3 fibroblasts [3]; 5 nM): 3.0 ± 1
Minimal active dose, p115 phosphorylation [4]: 3

CSCC[C@H](NC(=O)[C@H](CC(C)C)NC(=O)CNC(=O)[C@@H](NC(=O)[C@H](C)NC(=O)[C@H](Cc1c[nH]c2ccccc12)NC(=O)[C@H](CCC(N)=O)NC(=O)[C@@H](NC(=O)CNC(=O)[C@H](CC(C)C)NC(=O)[C@H](Cc1cccc(N(CCCl)CCCl)c1)NC(=O)OC(C)(C)C)[C@@H](C)O)C(C)C)C(N)=O [XIV, Boc-mMel-Leu-Gly-Thr-Gln-Trp-Ala-Val-Gly-Leu-Met-NH2] (Boc-[X1]LGTQWAVGLM-NH2)
IC50 (bombesin receptors): 445 ± 60 nM

Boc-pMel-Gln-Trp-Ala-Val-Gly-His(Dnp)-Leu-Met-NH2 [IV]
% inhibition in the presence of 25 nM BBS (A) (Swiss 3T3 fibroblasts [1]; 500 nM): 59 ± 3%
% inhibition in the presence of 25 nM BBS (B) (Swiss 3T3 fibroblasts [1]; 500 nM): 81%
% inhibition in the presence of 25 nM BBS (A) (Swiss 3T3 fibroblasts [1]; 5000 nM): 67 ± 3%
% inhibition in the presence of 25 nM BBS (B) (Swiss 3T3 fibroblasts [1]; 5000 nM): 73%
Antagonism of BBS (in words) (Swiss 3T3 fibroblasts [1]): potent antagonists
ID50 (bombesin receptors): 1,170 ± 400 nM
Antagonism of BBS (in words) (Swiss 3T3 fibroblasts [2]): potent antagonists
[H3]thymidine incorporation, fold increase over basal value (Swiss 3T3 fibroblasts [3]; 5 nM): 1
[H3]thymidine incorporation, fold increase over basal value (Swiss 3T3 fibroblasts [3]; 50 nM): 1
[H3]thymidine incorporation, fold increase over basal value (Swiss 3T3 fibroblasts [3]; 500 nM): 1.7
[H3]thymidine incorporation, fold increase over basal value (Swiss 3T3 fibroblasts [3]; 5000 nM): 2.3
Effect on thymidine incorporation (in words) (Swiss 3T3 fibroblasts [3]): did not increase incorporation of thymidine
Minimal active dose, p115 phosphorylation [4]: 50 nM

H-pMel-Gln-Trp-Ala-Val-Gly-His(Dnp)-Leu-Met-NH2.HCl
% inhibition in the presence of 25 nM BBS (A) (Swiss 3T3 fibroblasts [1]; 500 nM): 26 ± 8%
% inhibition in the presence of 25 nM BBS (B) (Swiss 3T3 fibroblasts [1]; 500 nM): 87 ± 9%
% inhibition in the presence of 25 nM BBS (A) (Swiss 3T3 fibroblasts [1]; 5000 nM): 44 ± 12%
% inhibition in the presence of 25 nM BBS (B) (Swiss 3T3 fibroblasts [1]; 5000 nM): 83 ± 6%
Antagonism of BBS (in words) (Swiss 3T3 fibroblasts [1]): potent antagonists
ID50 (bombesin receptors): 680 ± 150 nM
Antagonism of BBS (in words) (Swiss 3T3 fibroblasts [2]): potent antagonists
[H3]thymidine incorporation, fold increase over basal value (Swiss 3T3 fibroblasts [3]; 5 nM): 1
[H3]thymidine incorporation, fold increase over basal value (Swiss 3T3 fibroblasts [3]; 50 nM): 1
[H3]thymidine incorporation, fold increase over basal value (Swiss 3T3 fibroblasts [3]; 500 nM): 1.4
[H3]thymidine incorporation, fold increase over basal value (Swiss 3T3 fibroblasts [3]; 5000 nM): 1.8
Effect on thymidine incorporation (in words) (Swiss 3T3 fibroblasts [3]): did not increase incorporation of thymidine
Minimal active dose, p115 phosphorylation [4]: 100 nM

— patent US5100873A, “Irreversible peptide ligands for bombesin receptors, their use, and process for making the same” (priority 1988, dated 1992)
